{"source": "patent US20020132793A1", "about": "“Use of methylphenidate compounds to enhance memory” (priority 2000, published 2002)", "key": {"[1]": {"system": "rats with lesions of the fornix", "test": "Inhibitory Avoidance (IA) task in rats with lesions of the fornix", "type": "in vivo, rat", "settings": "5 mg/kg, one hour before"}, "IA memory in the rat": {"system": "IA memory in the rat", "test": "Inhibitory Avoidance (IA) task in normal rats", "type": "in vivo", "settings": "for retention on the IA task: FIG. 1", "procedure": "An exemplary passive avoidance test utilizes an apparatus that consists of a lit chamber that can be separated from a dark chamber by a sliding door. At training, the animal is placed in the lit chamber for some period of time, and the door is opened. The animal moves to the dark chamber after a short delay—the latency—that is recorded. Upon entry into the dark chamber, the door is shut closed and a foot shock is delivered. Retention of the experience is determined after various time intervals, e.g., 24 or 48 hours, by repeating the test and recording the latency. The protocol is one of many variants of the passive avoidance procedures (for review, see Rush (1988) Behav Neural Biol 50:255).\nThe Inhibitory Avoidance (IA) task is a well-studied behavioral paradigm which can provide the researcher with a consistent and long-lasting measure of memory. The paradigm consists of one training trial and one retention trial. Test articles may be administered to the rats either before or after training. Improved memory, as a result of test compound administration, is evident as increased latency on the retention trial. The objective of the following experiments was to investigate the effects of methylphenidate on IA memory in the rat.\nIn this experiment, rats were injected with three different doses of methylphenidate thirty minutes prior to training on the IA task.\nRats were injected with 5 mg/kg of methylphenidate and trained on the IA task.\nIn this experiment, the time of drug administration was varied in order to determine the optimal pre-training drug administration time.\nThis experiment was conducted in order to determine whether the enhanced retention observed in Experiment 2 was long-lasting. Rats received a second retention test one week after the first retention test. No additional training or drug was administered to the animals in the interim period.\nIn the next experiment, we investigated whether the performance of amnesic rats could be improved by administration of methylphenidate. In this experiment, control rats and rats with lesions of the fornix received injections of either saline or methylphenidate (5 mg/kg), and one hour later, were tested on the IA task.\nDifferent doses of l-threo methylphenidate were administered to rats one hour prior to training on the Inhibitory Avoidance task. Retention for the task was tested 24 hours later. […] This experiment was subsequently replicated using a target dose of 5 mg/kg.\nThe effects of d-threo methylphenidate on memory consolidation as tested by the Inhibitory Avoidance task were also evaluated. Different doses of d-threo were administered to rats one hour prior to training on the Inhibitory Avoidance task."}, "[2]": {"settings": "cited from earlier work"}, "locomotor activity": {"system": "locomotor activity", "test": "Activity monitoring task (locomotor activity levels)", "procedure": "The effects of d-threo methylphenidate on locomotor activity was investigated by injecting rats with saline or 2.5 mg/kg of d-threo methylphenidate, and testing them one hour later on the activity monitoring task.\nIn order to investigate the effects of l-threo methylphenidate on activity levels, rats were injected with 5 mg/kg of l-threo methylphenidate, and underwent activity monitoring one hour later."}, "attention and learning": {"system": "attention and learning", "test": "Brief Visuospatial Memory Test in healthy human volunteers", "type": "in vivo", "source_text": "(§1) The primary objective of the study is to identify the MTD and dose-limiting side-effects of l-threo methylphenidate hydrochloride. The secondary objectives included:\n(§2) This was a randomised, double-blind, placebo-controlled, study including eight healthy male/female subjects. There were five treatment periods, each comprising two treatment days, with a 5-day washout period between dose levels. Subjects received four ascending doses of drug (a split dose on the first day of the treatment period and half the dose on the second day of the treatment period) and placebo. The placebo dose was randomly assigned to one of the five treatment periods. Each dose was taken orally.\n(§3) The first dose level was administered on Day 1 and Day 2. After a 5-day washout period, subjects received the next dose level for 2 days. The period of washout and dose escalation was repeated until all five dose levels (four active dose levels and one placebo) were administered. Safety and tolerability was assessed after each treatment period to determine if subjects may advance to the next dose level.\nHigher BVMT score indicates increased attention and learning."}, "memory retention": {"system": "memory retention", "test": "Providence Recognition Memory Test (Pictoral) in healthy human volunteers", "type": "in vivo", "settings": "PRMT (ascending) and RAVLT (descending) experiments together", "source_text": "as §1, §2, §3\nPatients were assessed using the Providence Recognition Memory Test (Pictoral). Higher PRMT score indicates increased memory retention. […] This study was performed on Decending Plasma Curve of l-threo-methylphenidate. Higher RAVLT score indicates increased memory retention."}, "[3]": {"settings": "2.5 mg/kg, tested one hour later, vs saline"}, "[4]": {"settings": "5 mg/kg, one hour later, vs saline"}}, "data": [{"smiles": "COC(=O)C(c1ccccc1)C1CCCCN1", "note": "(racemic) [methylphenidate, methyl α-phenyl-2-piperidineacetate]", "values": [{"measurement": "performance of the fornix lesion rats on the IA task", "setting": "[1]; FIG. 3", "value": "appeared to improve"}, {"measurement": "performance of fornix animals vs normal, saline injected animals", "setting": "[1]; post hoc test", "value": "not significantly different from normal, saline injected animals"}, {"measurement": "retention on the IA task", "setting": "IA memory in the rat; 5 mg/kg injected thirty minutes prior to training", "value": "improved retention"}, {"measurement": "performance of normal rats on the IA task", "setting": "IA memory in the rat; 5 mg/kg, one hour before, FIG. 3", "value": "dramatically enhanced"}, {"measurement": "performance of normal rats vs all other experimental groups (Student-Newman-Keuls post hoc)", "setting": "IA memory in the rat; 5 mg/kg, one hour before, p<0.05", "value": "significantly enhanced relative to all other experimental groups"}, {"measurement": "optimal pre-training drug administration time", "setting": "IA memory in the rat; 5 mg/kg, time of drug administration varied", "value": "most effective when administered to the rats one hour prior to training"}, {"measurement": "retention of the IA task, second experiment", "setting": "IA memory in the rat; 5 mg/kg, unpaired t-test p<0.03, FIG. 2", "value": "significantly improved retention"}, {"measurement": "retention on the IA task", "setting": "IA memory in the rat; 10 mg/kg injected thirty minutes prior to training", "value": "no effect"}, {"measurement": "retention on the IA task", "setting": "IA memory in the rat; 15 mg/kg injected thirty minutes prior to training", "value": "no effect"}, {"measurement": "performance at second retention test (long-term retention)", "setting": "IA memory in the rat; one week after the first retention test, no additional training or drug, t(54)=2.358, p<0.0220", "value": "still significantly enhanced"}, {"measurement": "half-life", "setting": "[2]; in adults", "value": "2 to 3", "unit": "h"}, {"measurement": "time to excretion after dosing", "setting": "[2]; in adults", "value": "48 to 96", "unit": "h"}]}, {"smiles": "COC(=O)[C@H](c1ccccc1)[C@H]1CCCCN1", "note": "[d-threo methylphenidate, D-threo-methylphenidate]", "values": [{"measurement": "number of movements", "setting": "locomotor activity; [3]", "value": "No significant main effects"}, {"measurement": "number of stereotyped activities", "setting": "locomotor activity; [3]", "value": "No significant main effects"}, {"measurement": "total distance moved", "setting": "locomotor activity; [3]", "value": "No significant main effects"}, {"measurement": "number of rears", "setting": "locomotor activity; 2.5 mg/kg, tested one hour later, vs saline, F(1, 70)=19.60, p<0.0234", "value": "Significant main effects"}, {"measurement": "movement time", "setting": "locomotor activity; 2.5 mg/kg, tested one hour later, vs saline, F(1, 70)=1304, p<0.0001", "value": "Significant main effects"}, {"measurement": "rest time", "setting": "locomotor activity; 2.5 mg/kg, tested one hour later, vs saline, F(1, 70)=1322, p<0.0001", "value": "Significant main effects"}, {"measurement": "hyperactivity (locomotor activity)", "setting": "locomotor activity; 2.5 mg/kg, tested one hour later, vs saline, FIG. 9", "value": "did not produce a large amount of hyperactivity"}, {"measurement": "memory consolidation in the Inhibitory Avoidance task, dose finding", "setting": "IA memory in the rat; 2.5 mg/kg one hour prior to training, FIG. 6", "value": "appears to be effective in improving memory"}, {"measurement": "memory in the Inhibitory Avoidance task, replication", "setting": "IA memory in the rat; 2.5 mg/kg, t(85)=2.403, p<0.0184, FIG. 7", "value": "significant memory enhancing effects"}]}, {"smiles": "COC(=O)[C@@H](c1ccccc1)[C@@H]1CCCCN1", "note": "[l-threo methylphenidate, L-threo-methylphenidate]", "values": [{"measurement": "enhancement of attention and learning by portion of the plasma curve", "setting": "attention and learning; BVMT", "value": "more effective during the ascending portion of the plasma curve"}, {"measurement": "attention and learning, BVMT score", "setting": "attention and learning; ascending blood concentration, oral, healthy volunteers, FIG. 14", "value": "can enhance attention and learning in patients"}, {"measurement": "activity levels compared to saline injected controls", "setting": "locomotor activity; 5 mg/kg, activity monitoring one hour later, FIG. 8", "value": "did not result in greatly increased activity levels"}, {"measurement": "locomotor hyperactivity, overall", "setting": "locomotor activity; 5 mg/kg, one hour later", "value": "does not appear to result in serious locomotor hyperactivity"}, {"measurement": "number of movements", "setting": "locomotor activity; [4]", "value": "no significant difference"}, {"measurement": "number of stereotyped activities", "setting": "locomotor activity; [4]", "value": "no significant difference"}, {"measurement": "total distance moved", "setting": "locomotor activity; [4]", "value": "no significant difference"}, {"measurement": "number of rears", "setting": "locomotor activity; 5 mg/kg, one hour later, vs saline, F(1, 70)=74.26, p<0.0001", "value": "small, but statistically significant main effects"}, {"measurement": "movement time", "setting": "locomotor activity; 5 mg/kg, one hour later, vs saline, F(1, 70)=728, p<0.0033", "value": "small, but statistically significant main effects"}, {"measurement": "time spent resting", "setting": "locomotor activity; 5 mg/kg, one hour later, vs saline, F(1, 70)=730.6, p<0.0032", "value": "small, but statistically significant main effects"}, {"measurement": "performance on the Inhibitory Avoidance task, dose finding", "setting": "IA memory in the rat; 5 mg/kg one hour prior to training, retention tested 24 hours later, FIG. 4", "value": "appeared to be effective in enhancing performance"}, {"measurement": "performance of the Inhibitory Avoidance task, replication", "setting": "IA memory in the rat; 5 mg/kg one hour prior to training, t(59)=2.686, p<0.0094, FIG. 5", "value": "significantly enhanced performance"}, {"measurement": "half-life relative to dl-threo methylphenidate", "setting": "[2]; strong evidence", "value": "even shorter half-life"}, {"measurement": "memory enhancement, ascending vs descending portion of the plasma curve", "setting": "memory retention", "value": "more effective during the ascending portion of the plasma curve"}]}]}
